From patent US9592221B2, “Antibacterial agents: aryl myxopyronin derivatives” (priority 2012, dated 2017) come the findings set out here.

Where only a bound is given, the exact number is not on record here.

One assay relates to Burkholderia mallei CHN7. Kind of assay: microbe, parasite or virus in culture. The assay is classed as cell-based. The conditions noted are these: Burkholderia mallei, CHN7, read-out: MIC B. mallei CHN7.
For a further assay, the system named is Yersinia pestis C092. Kind of assay: microbe, parasite or virus in culture. The note with it: Yersinia pestis, C092, read-out: MIC Y. pestis C092. The assay is classed as cell-based.
Assay [1] deals with Acinetobacter baumannii ATCC 19606. The assay can be described thus: MIC, spiral gradient endpoint assay, A. baumannii. In kind it is cell-based. The conditions noted are these: ATCC19606; Acinetobacter baumannii ATCC 19606.
Assay [2] relates to Escherichia coli D21f2tolC. The assay can be described thus: MIC, spiral gradient endpoint assay, E. coli D21f2tolC. The assay is classed as cell-based. The note with it: Escherichia coli, D21F2TOLC, read-out: MIC E. coli D21f2toIC.
Assay [3] concerns Bacillus anthracis Vollum 1b. Kind of assay: microbe, parasite or virus in culture. The assay is classed as cell-based. The note with it: Bacillus anthracis, VOLLUM1B, read-out: MIC B. anthracis Vollum-1b.
The subject of assay [4] is Burkholderia pseudomallei Human/Blood/OH/US/1994. The assay can be described thus: microbe, parasite or virus in culture. The assay is classed as cell-based. The conditions noted are these: Burkholderia pseudomallei, read-out: MIC B. pseudomallei Human/Blood/OH.
The test system of assay [5] is Staphylococcus aureus ATCC 12600. The assay can be described thus: MIC, spiral gradient endpoint assay, S. aureus ATCC 12600. The assay is classed as cell-based. The note with it: ATCC12600; Staphylococcus aureus ATCC 12600.
The test system of assay [6] is Mycobacterium tuberculosis H37Rv. The assay can be described thus: MIC, microplate Alamar Blue assay, M. tuberculosis. The assay is classed as cell-based. In general terms: Alamar Blue is a resazurin reagent that responds to reducing activity.
A further assay concerns Brucella melitensis 16M. The assay can be described thus: microbe, parasite or virus in culture. The conditions noted are these: Brucella melitensis, 16M, read-out: MIC B. melitensis 16M. In kind it is cell-based.
For assay [7], the system named is Francisella tularensis SCHU4. Kind of assay: microbe, parasite or virus in culture. The note with it: Francisella tularensis, SCHU4, read-out: MIC F. tularensis SCHU4. In kind it is cell-based.
The target of assay [8] is E. coli RNA polymerase σ^70 holoenzyme (Escherichia coli, UniProt P0A8T7+P0A8V2). The assay can be described thus: Fluorescence-detected RNA polymerase assay, E. coli RNA polymerase. The assay is classed as biochemical. The note with it: read-out: IC50 E. coli RNAP.
Sequence of E. coli RNA polymerase σ^70 holoenzyme (P0A8T7 whole entry): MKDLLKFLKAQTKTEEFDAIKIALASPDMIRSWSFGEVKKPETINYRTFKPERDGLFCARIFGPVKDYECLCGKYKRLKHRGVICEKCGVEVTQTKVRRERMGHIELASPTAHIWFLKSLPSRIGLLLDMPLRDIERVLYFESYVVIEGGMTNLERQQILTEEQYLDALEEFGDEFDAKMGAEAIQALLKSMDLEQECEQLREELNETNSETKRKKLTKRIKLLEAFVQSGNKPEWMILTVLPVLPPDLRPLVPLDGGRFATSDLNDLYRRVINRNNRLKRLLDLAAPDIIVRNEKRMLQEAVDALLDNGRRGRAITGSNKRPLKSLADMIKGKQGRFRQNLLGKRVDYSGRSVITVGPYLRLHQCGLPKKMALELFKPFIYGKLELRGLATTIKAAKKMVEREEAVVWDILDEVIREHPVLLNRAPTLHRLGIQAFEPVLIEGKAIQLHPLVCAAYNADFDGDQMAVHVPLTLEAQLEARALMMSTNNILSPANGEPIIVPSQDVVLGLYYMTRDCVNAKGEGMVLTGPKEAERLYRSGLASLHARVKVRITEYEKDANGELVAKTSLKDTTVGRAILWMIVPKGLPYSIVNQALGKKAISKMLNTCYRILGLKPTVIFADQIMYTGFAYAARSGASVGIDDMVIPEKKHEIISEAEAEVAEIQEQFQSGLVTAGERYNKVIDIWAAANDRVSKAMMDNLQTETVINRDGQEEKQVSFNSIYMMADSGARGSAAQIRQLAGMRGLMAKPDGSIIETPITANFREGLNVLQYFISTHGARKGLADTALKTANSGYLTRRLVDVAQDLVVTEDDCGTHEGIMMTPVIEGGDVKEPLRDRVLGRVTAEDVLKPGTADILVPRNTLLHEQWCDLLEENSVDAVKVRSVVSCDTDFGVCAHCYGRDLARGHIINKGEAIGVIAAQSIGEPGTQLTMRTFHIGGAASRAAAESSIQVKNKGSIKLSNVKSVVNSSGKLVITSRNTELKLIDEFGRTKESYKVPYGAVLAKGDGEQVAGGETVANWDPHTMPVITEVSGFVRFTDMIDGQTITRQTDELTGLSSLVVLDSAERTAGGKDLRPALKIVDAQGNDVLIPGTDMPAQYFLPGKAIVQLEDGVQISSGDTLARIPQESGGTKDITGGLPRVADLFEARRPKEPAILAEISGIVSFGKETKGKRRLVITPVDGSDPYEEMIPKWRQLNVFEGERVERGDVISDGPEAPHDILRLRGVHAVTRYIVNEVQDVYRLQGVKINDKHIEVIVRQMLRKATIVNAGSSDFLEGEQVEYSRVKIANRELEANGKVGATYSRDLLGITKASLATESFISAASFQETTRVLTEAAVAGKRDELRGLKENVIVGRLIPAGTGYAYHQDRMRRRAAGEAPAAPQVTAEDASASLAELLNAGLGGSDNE
Sequence of E. coli RNA polymerase σ^70 holoenzyme (P0A800 whole entry, further chain): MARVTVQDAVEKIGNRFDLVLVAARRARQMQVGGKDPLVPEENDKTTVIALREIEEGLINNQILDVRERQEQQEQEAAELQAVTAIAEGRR
Sequence of E. coli RNA polymerase σ^70 holoenzyme (P0A8V2 whole entry): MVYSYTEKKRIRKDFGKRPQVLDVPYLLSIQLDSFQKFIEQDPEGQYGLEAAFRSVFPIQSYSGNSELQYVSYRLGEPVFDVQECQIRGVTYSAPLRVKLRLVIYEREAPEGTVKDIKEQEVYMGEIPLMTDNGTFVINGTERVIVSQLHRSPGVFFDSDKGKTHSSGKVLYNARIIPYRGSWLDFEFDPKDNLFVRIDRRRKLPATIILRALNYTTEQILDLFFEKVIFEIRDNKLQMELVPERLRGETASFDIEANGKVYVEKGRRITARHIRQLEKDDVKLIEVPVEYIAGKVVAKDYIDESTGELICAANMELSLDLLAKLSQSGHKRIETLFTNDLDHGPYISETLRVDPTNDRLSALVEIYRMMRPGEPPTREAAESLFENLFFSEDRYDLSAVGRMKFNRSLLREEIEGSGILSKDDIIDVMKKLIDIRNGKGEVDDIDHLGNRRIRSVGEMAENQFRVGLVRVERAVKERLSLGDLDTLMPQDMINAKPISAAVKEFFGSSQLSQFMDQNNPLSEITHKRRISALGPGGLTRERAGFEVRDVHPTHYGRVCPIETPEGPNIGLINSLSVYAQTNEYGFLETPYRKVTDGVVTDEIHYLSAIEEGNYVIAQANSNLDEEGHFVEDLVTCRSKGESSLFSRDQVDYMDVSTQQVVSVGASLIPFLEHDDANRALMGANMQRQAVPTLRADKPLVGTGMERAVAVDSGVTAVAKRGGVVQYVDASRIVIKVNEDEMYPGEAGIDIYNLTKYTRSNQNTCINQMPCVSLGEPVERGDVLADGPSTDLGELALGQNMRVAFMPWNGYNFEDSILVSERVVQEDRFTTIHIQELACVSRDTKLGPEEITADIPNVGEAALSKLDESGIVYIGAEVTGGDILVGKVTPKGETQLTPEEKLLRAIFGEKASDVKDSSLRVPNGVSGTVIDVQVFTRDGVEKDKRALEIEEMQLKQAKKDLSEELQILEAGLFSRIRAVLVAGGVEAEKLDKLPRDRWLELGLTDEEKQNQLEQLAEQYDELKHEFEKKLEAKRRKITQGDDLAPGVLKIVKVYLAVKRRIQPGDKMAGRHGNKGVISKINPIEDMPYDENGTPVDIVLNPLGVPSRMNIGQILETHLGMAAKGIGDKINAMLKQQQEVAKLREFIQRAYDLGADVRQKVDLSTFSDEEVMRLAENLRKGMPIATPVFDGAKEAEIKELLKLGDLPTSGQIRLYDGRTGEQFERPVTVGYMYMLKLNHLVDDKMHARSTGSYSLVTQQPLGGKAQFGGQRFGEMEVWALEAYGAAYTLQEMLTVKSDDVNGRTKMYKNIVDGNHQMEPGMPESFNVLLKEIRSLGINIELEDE
Sequence of E. coli RNA polymerase σ^70 holoenzyme (P00579 whole entry, further chain): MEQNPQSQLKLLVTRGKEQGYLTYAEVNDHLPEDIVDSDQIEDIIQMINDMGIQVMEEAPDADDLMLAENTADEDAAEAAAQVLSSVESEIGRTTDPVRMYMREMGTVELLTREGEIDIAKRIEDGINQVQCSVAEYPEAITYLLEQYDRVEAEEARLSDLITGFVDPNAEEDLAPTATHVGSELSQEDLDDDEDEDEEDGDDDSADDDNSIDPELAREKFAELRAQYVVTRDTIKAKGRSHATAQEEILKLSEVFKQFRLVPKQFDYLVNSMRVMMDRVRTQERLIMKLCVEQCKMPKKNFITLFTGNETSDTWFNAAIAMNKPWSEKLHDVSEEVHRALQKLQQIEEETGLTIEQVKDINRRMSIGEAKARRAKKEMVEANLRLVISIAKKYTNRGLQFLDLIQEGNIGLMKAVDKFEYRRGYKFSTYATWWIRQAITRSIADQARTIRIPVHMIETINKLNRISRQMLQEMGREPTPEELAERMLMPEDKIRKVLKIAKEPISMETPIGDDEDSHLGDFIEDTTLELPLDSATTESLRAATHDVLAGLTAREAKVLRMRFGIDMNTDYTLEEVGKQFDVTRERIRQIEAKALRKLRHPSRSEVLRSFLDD
Sequence of E. coli RNA polymerase σ^70 holoenzyme (P0A7Z4 whole entry, further chain): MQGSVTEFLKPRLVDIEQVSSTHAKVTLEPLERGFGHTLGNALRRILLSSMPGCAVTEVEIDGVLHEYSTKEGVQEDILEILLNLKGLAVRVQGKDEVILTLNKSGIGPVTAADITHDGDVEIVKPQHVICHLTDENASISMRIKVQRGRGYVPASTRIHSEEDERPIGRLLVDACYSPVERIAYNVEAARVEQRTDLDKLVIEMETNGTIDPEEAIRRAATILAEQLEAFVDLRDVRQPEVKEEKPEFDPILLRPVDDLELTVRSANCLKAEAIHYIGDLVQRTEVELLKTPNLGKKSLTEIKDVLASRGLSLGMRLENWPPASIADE

Usually IC50 stands for the concentration that inhibits the measured activity by half.

For `CCCCCCc1ccc(C=C(C)C(=O)c2c(O)cc(C(C)CC/C=C/NC(=O)OC)oc2=O)cn1` (mixture of isomers) [APY37, methyl (E)-5-(3-((E/Z)-3-(6-hexylpyridin-3-yl)-2-methylacryloyl)-4-hydroxy-2-oxo-2H-pyran-6-yl)hex-1-enylcarbamate], the MIC was 50 µg/mL in the assay with Burkholderia mallei CHN7; above 50 µg/mL in the assay on Yersinia pestis C092; above 40 µg/mL in [1]; 0.6 µg/mL in [2]; 50 µg/mL in assay [3]; above 50 µg/mL in [4]. Further, the MIC was above 40 µg/mL in [5], above 50 µg/mL in [6], 10 µg/mL in the assay with Brucella melitensis 16M and 50 µg/mL in assay [7]. Further, the IC50 in assay [8] amounted to 0.09 µM.

Consider `CCCCOc1ccc(C=C(C)C(=O)c2c(O)cc(C(C)CC/C=C/NC(=O)OC)oc2=O)cc1` (mixture of isomers) [APY39, methyl (E)-5-(3-((E/Z)-3-(4-butoxyphenyl)-2-methylacryloyl)-4-hydroxy-2-oxo-2H-pyran-6-yl)hex-1-enylcarbamate], for which the MIC is 10 µg/mL in the assay on Burkholderia mallei CHN7; 30 µg/mL with Yersinia pestis C092; above 40 µg/mL in assay [1]; 0.2 µg/mL in [2]; 3 µg/mL in assay [3]; 50 µg/mL in assay [4]. For the same compound, the MIC was 1 µg/mL in [5], 3 µg/mL in assay [6], 0.4 µg/mL in the assay on Brucella melitensis 16M and 30 µg/mL in assay [7]. Also, in assay [8], the IC50 stood at 0.08 µM.

For `CCCOc1ccc(C=C(C)C(=O)c2c(O)cc(C(C)CC/C=C/NC(=O)OC)oc2=O)cc1` (mixture of isomers) [APY40, methyl (E)-5-(4-hydroxy-3-((E/Z)-2-methyl-3-(4-propoxyphenyl)acryloyl)-2-oxo-2H-pyran-6-yl)hex-1-enylcarbamate], the MIC was above 50 µg/mL with Burkholderia mallei CHN7; above 50 µg/mL with Yersinia pestis C092; 9 µg/mL in assay [1]; 0.4 µg/mL in [2]; 10 µg/mL in [3]; above 50 µg/mL in assay [4]. The MIC in assay [5] was 1 µg/mL; in assay [6] it was 6 µg/mL; in the assay with Brucella melitensis 16M, 3 µg/mL; in [7], above 50 µg/mL. Moreover, in [8], the IC50 is 0.01 µM.

Turning to `CCCCOc1cccc(C=C(C)C(=O)c2c(O)cc(C(C)CC/C=C/NC(=O)OC)oc2=O)c1` (mixture of isomers) [APY42, methyl (E)-5-(3-((E/Z)-3-(3-butoxyphenyl)-2-methylacryloyl)-4-hydroxy-2-oxo-2H-pyran-6-yl)hex-1-enylcarbamate], the MIC is 50 µg/mL in the assay on Burkholderia mallei CHN7; above 50 µg/mL with Yersinia pestis C092; above 40 µg/mL in [1]; 0.4 µg/mL in assay [2]; 10 µg/mL in assay [3]; 50 µg/mL in assay [4]. The MIC in [5] was above 40 µg/mL; in assay [6] it was 30 µg/mL; in the assay with Brucella melitensis 16M it was 6 µg/mL; in assay [7] it was 50 µg/mL. For the same compound, the IC50 in assay [8] is 0.03 µM.

Regarding `CCCOc1cccc(C=C(C)C(=O)c2c(O)cc(C(C)CC/C=C/NC(=O)OC)oc2=O)c1` (mixture of isomers) [APY43, methyl (E)-5-(4-hydroxy-3-((E/Z)-2-methyl-3-(3-propoxyphenyl)acryloyl)-2-oxo-2H-pyran-6-yl)hex-1-enylcarbamate], the MIC in the assay with Burkholderia mallei CHN7 is 50 µg/mL; in the assay with Yersinia pestis C092, above 50 µg/mL; in [1], above 40 µg/mL; in assay [2] it was 0.4 µg/mL; in assay [3], 10 µg/mL; in [4], 50 µg/mL. Further, the MIC in [5] is above 40 µg/mL; in assay [6] it was 6 µg/mL; with Brucella melitensis 16M, 3 µg/mL; in assay [7], 30 µg/mL. Further, the IC50 in assay [8] came to 0.2 µM.

As to `COC(=O)N/C=C/CCC(C)c1cc(O)c(C(=O)C(C)=Cc2cccc(OCCC(C)(C)C)c2)c(=O)o1` (mixture of isomers) [APY49, methyl (E)-5-(3-((E/Z)-3-(3-(3,3-dimethylbutoxy)phenyl)-2-methylacryloyl)-4-hydroxy-2-oxo-2H-pyran-6-yl)hex-1-enylcarbamate], the MIC with Burkholderia mallei CHN7 is 50 µg/mL; in the assay with Yersinia pestis C092, above 50 µg/mL; in assay [1] it was above 40 µg/mL; in [2] it was 0.3 µg/mL; in assay [3], 10 µg/mL; in [4], above 50 µg/mL. The MIC in assay [5] is above 40 µg/mL; in [6], 50 µg/mL; in the assay with Brucella melitensis 16M, 10 µg/mL; in [7], 30 µg/mL. Moreover, in assay [8], the 50% inhibitory concentration (IC50) worked out at 0.01 µM.

For `COC(=O)N/C=C/CCC(C)c1cc(O)c(C(=O)C(C)=Cc2ccc(OCC(F)(F)F)cc2)c(=O)o1` (mixture of isomers) [APY117, methyl ((1E)-5-(4-hydroxy-3-(2-methyl-3-(4-(2,2,2-trifluoroethoxy)phenyl)acryloyl)-2-oxo-2H-pyran-6-yl)hex-1-en-1-yl)carbamate], the MIC with Burkholderia mallei CHN7 is 50 µg/mL; in the assay with Yersinia pestis C092, 50 µg/mL; in assay [1], above 40 µg/mL; in assay [2], 0.4 µg/mL; in assay [3] it was 10 µg/mL; in assay [4] it was above 50 µg/mL. For the same compound, the MIC in [5] is 2 µg/mL; in assay [6], 10 µg/mL; with Brucella melitensis 16M it was 10 µg/mL; in [7], above 50 µg/mL. Further, the IC50 in [8] is 0.1 µM.

As to `COC(=O)N/C=C/CCC(C)c1cc(O)c(C(=O)C(C)=Cc2ccc(Oc3ccc(C(F)(F)F)cc3)s2)c(=O)o1` (mixture of isomers) [APY119, methyl ((1E)-5-(4-hydroxy-3-(2-methyl-3-(5-(4-(trifluoromethyl)phenoxy)thiophen-2-yl)acryloyl)-2-oxo-2H-pyran-6-yl)hex-1-en-1-yl)carbamate], the MIC in the assay with Burkholderia mallei CHN7 was 3 µg/mL; in the assay on Yersinia pestis C092 it was 3 µg/mL; in [1], above 40 µg/mL; in assay [2], 0.1 µg/mL; in assay [3], 0.8 µg/mL; in assay [4] it was 6 µg/mL. For the same compound, the MIC in [5] was 2 µg/mL; in [6], above 50 µg/mL; in the assay with Brucella melitensis 16M, 3 µg/mL; in assay [7], 50 µg/mL. For the same compound, the IC50 in assay [8] was found to be 0.006 µM.

For `COC(=O)N/C=C/CCC(C)c1cc(O)c(C(=O)C(C)=Cc2cc(Br)c(CC(C)C)s2)c(=O)o1` (mixture of isomers) [APY120, methyl ((1E)-5-(3-(3-(4-bromo-5-isobutylthiophen-2-yl)-2-methylacryloyl)-4-hydroxy-2-oxo-2H-pyran-6-yl)hex-1-en-1-yl)carbamate], the MIC with Burkholderia mallei CHN7 worked out at 6 µg/mL; in the assay on Yersinia pestis C092, 6 µg/mL; in [1], 30 µg/mL; in assay [2], 0.2 µg/mL; in assay [3], 2 µg/mL; in assay [4] it was 10 µg/mL. The MIC in assay [5] was 1 µg/mL; in [6] it was above 50 µg/mL; in the assay with Brucella melitensis 16M it was 3 µg/mL; in assay [7], 50 µg/mL. Also, the IC50 in assay [8] was found to be 0.02 µM.

Consider `CCCOc1ccc2c(c1)cc(C=C(C)C(=O)c1c(O)cc(C(C)CC/C=C/NC(=O)OC)oc1=O)n2C` (mixture of isomers) [APY121, methyl ((1E)-5-(4-hydroxy-3-(2-methyl-3-(1-methyl-5-propoxy-1H-indol-2-yl)acryloyl)-2-oxo-2H-pyran-6-yl)hex-1-en-1-yl)carbamate], for which the MIC with Burkholderia mallei CHN7 is above 50 µg/mL; with Yersinia pestis C092, above 50 µg/mL; in assay [1] it was above 40 µg/mL; in assay [2] it was 0.8 µg/mL; in [3], above 50 µg/mL; in assay [4], above 50 µg/mL. Also, the MIC in [5] is above 40 µg/mL; in assay [6] it was above 50 µg/mL; with Brucella melitensis 16M, above 50 µg/mL; in [7] it was above 50 µg/mL. In addition, the IC50 in assay [8] worked out at 0.5 µM.

`COC(=O)N/C=C/CCC(C)c1cc(O)c(C(=O)C(C)=Cc2cc3cc(OC(C)C)ccc3n2C)c(=O)o1` (mixture of isomers) [APY123]: the MIC in the assay with Burkholderia mallei CHN7 was above 50 µg/mL; with Yersinia pestis C092, above 50 µg/mL; in assay [1], above 40 µg/mL; in [2], 2 µg/mL; in [3], above 50 µg/mL; in [4] it was above 50 µg/mL. In addition, the MIC in [5] was above 40 µg/mL; in [6] it was above 50 µg/mL; in the assay on Brucella melitensis 16M, above 50 µg/mL; in assay [7] it was above 50 µg/mL. Moreover, the IC50 in assay [8] was 0.5 µM.

For the compound `COC(=O)N/C=C/CCC(C)c1cc(O)c(C(=O)C(C)=Cc2sc(CC(C)C)cc2Br)c(=O)o1` (mixture of isomers) [APY124, methyl ((1E)-5-(3-(3-(3-bromo-5-isobutylthiophen-2-yl)-2-methylacryloyl)-4-hydroxy-2-oxo-2H-pyran-6-yl)hex-1-en-1-yl)carbamate], the MIC in the assay with Burkholderia mallei CHN7 stood at 10 µg/mL; in the assay on Yersinia pestis C092, 6 µg/mL; in assay [1], 6 µg/mL; in assay [2], 0.3 µg/mL; in assay [3], 0.2 µg/mL; in [4] it was 30 µg/mL. Besides, the MIC in assay [5] was found to be 0.9 µg/mL; in assay [6] it was 50 µg/mL; in the assay on Brucella melitensis 16M, 10 µg/mL; in assay [7] it was 6 µg/mL. For the same compound, the IC50 in [8] turned out to be 0.004 µM.
